Experimental data reported in patent US12083089B2, “Compositions and methods for stimulating ventilatory and/or respiratory drive” (CASE WESTERN RESERVE UNIVERSITY, priority 2015, dated 2024).

Test system: freely moving rats
Experiment: Arterial blood-gas chemistry and A-a gradient in morphine-treated rats
Assay type: in vivo, rat
Details: bolus 500 μmol/kg i.v. after morphine 10 mg/kg i.v.; Example 1

SMILES: N[C@H](CS)C(=O)O [D-cysteine]
- deleterious actions of morphine on ABG chemistry and A-a gradient: minimal effects
